SMILES strings stand for the structures.

The values that follow come from PMC11963559, “Identification of novel thiazole derivatives as flaviviral protease inhibitors effective against Dengue (DENV2) and Japanese encephalitis viruses” (Antimicrobial Agents and Chemotherapy, 2025).

The nature of series [1]: MTT cytotoxicity assay in SH-SY5Y cells. The series is classed as cell-based. The conditions noted are these: human. How it is done:
We further studied the effect of the compounds on JEV replication in the human neuroblastoma SH-SY5Y cells, which represents a suitable model cell line for a neuropathic virus, like JEV. At first, the cytotoxicity was studied for both compounds in SH-SY5Y cells. […] Then, the SH-SY5Y cells were infected with the JEV virus in the absence or presence of 3aq or 3au (10 µM), and viral genomic RNA copies were quantified using qRT-PCR at 24, 48, and 72 hpi, as described previously.
The MTT assay was performed to determine cellular metabolic activity as an indicator of cell viability, proliferation, and cytotoxicity. Thus, to determine whether these compounds had any toxic effects on cellular viability, an MTT assay was performed following the protocol described previously by Mosmann (1983) ([55], [56]). Briefly, BHK-21 and SH-SHY5Y cells were seeded into 96-well plates at a density of 20,000 cells/well. Almost 16–18 h later, the cells were treated with different concentrations of the compounds (3au and 3aq) for 24 h at 37 °C in 5% CO2. […] The absorbance of the solution in a 96-well plate was measured at 595 nm using a microplate reader (Epoch 2; BioTek Instruments). Each experiment was performed in triplicate, and the percentage of cell viability was determined as the ratio of the absorbance values of the experimental samples to the control solvent (DMSO) on the same plate.

For series [2], the system named is BHK-21 cells. Description: MTT cytotoxicity assay in BHK-21 cells. It counts as cell-based, hamster. To be noted: 24 h. How it is done:
(§1) First, cytotoxic impact of these compounds was evaluated using MTT assay. […] Subsequently, we evaluated the effectiveness of these compounds in inhibiting DENV2 replication. BHK-21 cells were infected with the virus in presence of increasing concentration of these compounds, and harvested at 24 hpi. The virus replication rate was assessed by quantifying the copy number of viral genomic RNA using quantitative real-time PCR (qRT-PCR).
(§2) The MTT assay was performed to determine cellular metabolic activity as an indicator of cell viability, proliferation, and cytotoxicity. Thus, to determine whether these compounds had any toxic effects on cellular viability, an MTT assay was performed following the protocol described previously by Mosmann (1983) ([55], [56]). Briefly, BHK-21 and SH-SHY5Y cells were seeded into 96-well plates at a density of 20,000 cells/well. Almost 16–18 h later, the cells were treated with different concentrations of the compounds (3au and 3aq) for 24 h at 37 °C in 5% CO2. Thereafter, the medium was aspirated, and 100 µL of MTT reagent (5 mg/mL, SRL) in PBS was added to the cells and incubated for 3 h at 37 °C. Formazan crystals were formed in each well and resuspended in 100 µL of dimethyl sulfoxide (DMSO) (Sigma, USA) at room temperature for 20 min to completely dissolve the crystals. The absorbance of the solution in a 96-well plate was measured at 595 nm using a microplate reader (Epoch 2; BioTek Instruments). Each experiment was performed in triplicate, and the percentage of cell viability was determined as the ratio of the absorbance values of the experimental samples to the control solvent (DMSO) on the same plate.

The nature of series [3]: MTT cytotoxicity assay in BHK-21 cells. The series is classed as cell-based, hamster. To be noted: hamster. How it is done: as §1, §2
Series [4] deals with JEV. Description: Time of drug addition assay, JEV in BHK-21 cells. It counts as cell-based. The conditions noted are these: JEV MOI 0.1, BHK-21, 10 µM, viral RNA at 24 hpi. The method, then: Considering the mode of action of the compounds 3au and 3aq, they should satisfy this criteria. To evaluate this potential, time of addition experiment was conducted for both compounds to inhibit JEV infection. BHK-21 cells and the virus were pre-treated for 3 h with 10 µM of compounds followed by infection and subsequent incubation in presence of the same (pre + during + post). Alternatively, the compounds (10 µM) were added either during the infection (during + post) or at different times post-infection as indicated (Fig. 9C and D). Virus amplification was measured at 24 hpi by measuring viral RNA accumulation as described above. […] This sustained inhibition indicates a potential therapeutic window for intervention, highlighting the compounds' ability to impede viral replication after initial infection. […] Together, our data not only established the antiviral activity of the compounds against DENV2 and JEV but also pointed out the mechanism of action of these compounds during the specific steps of the virus life cycle.
BHK-21 cells were seeded in a 12-well cell culture plate at a density of (0.5 × 10^6 cells/well). Upon 85%–90% confluency, cells were infected with JEV virus at an MOI of 0.1. Cells were incubated for 1.5 h at 37 °C. […] Cells were harvested at 24 hpi, and the viral genomic RNA levels were quantified using qRT-PCR.

The test system of series [5] is JEV. Description: JEV progeny virus titer in BHK-21 supernatant (TCID50 assay). The series is classed as cell-based. To be noted: BHK-21, read-out: IC50 of viral titer reduction (called TCID50 in the source). How it is done:
To this end, we assessed the antiviral activity of shortlisted compounds by evaluating their ability to inhibit progeny virus production. BHK-21 cells were infected with DENV2 and JEV (MOI: 0.1) in the presence of different concentrations of 3aq or 3au or with DMSO, and viral titer was determined in the supernatants harvested at 18 hpi. Compound 3aq caused the maximum reduction of viral titer showing TCID50 of 5.18 ± 0.87 and 2.29 ± 0.50 µM against DENV2 and JEV, respectively (Fig. 8B and D).
During DENV2 and JEV infection, the viral supernatant was collected and used in the TCID50 assay to determine the viral titer. Then, 3 × 10^4 BHK-21 cells per well were seeded in a 96-well cell culture microtiter plate the day before titration. The virus stock was diluted with infection media (DMEM + 2% FBS) to attain virus dilutions of 1 × 10^−2 to 6.4 × 10^−7 in 12 parallels, with the last column of the 96-well plate serving as virus-free cell control. On the day of the assay, when the cell had reached 90%–95% confluency, the growth medium was aspirated using a multichannel pipette, and 100 µL of virus inoculum of different dilutions was transferred to each well, keeping the last well only in infection media without virus. The cells were then incubated at 37 °C in a humidified 5% CO2 chamber. […] TCID50 was calculated using the Spearman and Karber methods.

Consider `COc1ccc(-c2csc(N/N=C(\C)c3ccc(O)cc3)n2)cc1` [3aq], for which the CC50 at 24 h in series [1] came to 58.3 ± 4.31 µM; in series [3], 82 ± 2.38 µM. Besides, in series [2], the non-toxic concentration entry is reported as “up to 25 µM”. In addition, in series [4], the “inhibition of viral replication by time of addition” value was “significantly inhibited viral replication even when added at 9 hpi”. In series [5], the half-inhibitory concentration (IC50) is 2.29 ± 0.5 µM.
Taken in the same sequence, the figures for `COc1ccc(-c2csc(N/N=C(\C)c3cc(O)cc(O)c3)n2)cc1` [3au] were 49.4 ± 3.65 µM, 76.6 ± 2.74 µM, “up to 25 µM”, “significantly inhibited viral replication even when added at 9 hpi” and 2.72 ± 0.24 µM.
